The values that follow come from US20100144626A1, “Treatment of Multi-Drug Resistant Bacterial Infections” (priority 2006, published 2010).

For data set [1], the system named is Enterococcus faecium (VRE) NCTC 7171. Nature of the data set: MIC, agar dilution (BSAC guidelines). Format: cell-based. As to conditions: Table 2, E. faecium (VRE) NCTC 7171, read-out: Minimum inhibitory concentration (MIC). On the procedure:
(§1) In example experiments miconazole nitrate, was dissolved in methanol and econazole nitrate and clotrimazole were dissolved in DMSO and methanol respectively. Other solvents that may be used include caster oil, pyridine, DMSO and 0.9% saline. For IV administration agents may be solubilised in polyethoxylated caster oil, or cyclodextrins such as sulfobutylether7-βcyclodextrin or hydroxypropyl-β-cyclodextrin and lactic acid. Minimum inhibitory concentrations (MICs) of a range of clinical and control bacterial organisms were measured according to BSAC (British Society for Antimicrobial Chemotherapy) guidelines, described briefly as follows;
(§2) Preparation of Agar Plates and Broths
(§3) Stock solutions of each agent were prepared using the formula:
(§4) Where P=μg of active compound per mg (μg/mg) • V=volume required (mL) • C=final concentration of solution (mg/L) • W=weight of agent (mg) to be dissolved in volume V (mL)
(§5) Stock solutions were prepared at concentrations of 1000 mg/L and 100 mg/L. The appropriate amounts of each stock solution were added to separate Petri dishes give the following final concentrations (after the addition of 20 mL molten agar): 128, 64, 32, 16, 8, 4, 2, 1, 0.5, 0.25, 0.12, 0.06, 0.03, 0.015 mg/L.
(§6) Volumes (20 mL) of cooled molten IST agar (oxoid) was added to each Petri dish and mixed by swirling.
(§7) After drying, the plates were stored at 4° C. and protected from light. Plates were used on the day of preparation.
(§8) The test organisms were grown overnight in 5 mL IST broth. Using a dilution in 0.9% saline of 1:500 for Gram-negative organisms and 1:100 for Gram-positive organisms, the appropriate agar plates were inoculated using a multipoint inoculator.
(§9) Plates were incubated at 37° C. in air for 18-20 hours.
(§10) The MIC is the minimum amount of an antibiotic at which there is no visible growth of bacteria. Tiny single colonies or faint hazes were not counted as growth.

Data set [2] has as its system Staphylococcus epidermidis ATCC 1228. Nature of the data set: MIC, agar dilution (BSAC guidelines). The format is cell-based. As to conditions: ATCC1228, Table 2, S. epidermidis ATCC 1228, read-out: Minimum inhibitory concentration (MIC). On the procedure:
as §1, §2, §3, §4, §5, §6, §7, §8, §9, §10

Data set [3] relates to Pseudomonas aeruginosa NCTC 10662. Nature of the data set: MIC, agar dilution (BSAC guidelines). The format is cell-based. The note with it: NCTC10662, Table 2, P. aeruginosa NCTC 10662, read-out: Minimum inhibitory concentration (MIC). On the procedure:
as §1, §2, §3, §4, §5, §6, §7, §8, §9, §10
(In general: In agar dilution, organisms are placed on agar that contains the substance at set levels.)

Data set [4] relates to VISA, strain VISA 3900 UK. Nature of the data set: MIC, agar dilution (BSAC guidelines). The format is cell-based. The note with it: Staphylococcus aureus, Table 2, read-out: Minimum inhibitory concentration (MIC). On the procedure: as §1, §2, §3, §4, §5, §6, §7, §8, §9, §10
Data set [5] has as its system VISA, strain USA/VISA 5836. Briefly: MIC, agar dilution (BSAC guidelines). The format is cell-based. The note with it: Staphylococcus aureus, Table 2, read-out: Minimum inhibitory concentration (MIC). On the procedure: as §1, §2, §3, §4, §5, §6, §7, §8, §9, §10
In data set [6] the test system is Enterococcus faecium (VRE) E19 UAA/522 VanB. Nature of the data set: MIC, agar dilution (BSAC guidelines). The format is cell-based. As to conditions: Table 2, E. faecium (VRE) E19 UAA/522 VanB, read-out: Minimum inhibitory concentration (MIC). On the procedure:
as §1, §2, §3, §4, §5, §6, §7, §8, §9, §10

Data set [7] relates to Enterococcus faecium (VRE) VanR B145344C LFE. Briefly: MIC, agar dilution (BSAC guidelines). Format: cell-based. As to conditions: Table 2, E. faecium (VRE) VanR B145344C LFE, read-out: Minimum inhibitory concentration (MIC). On the procedure:
as §1, §2, §3, §4, §5, §6, §7, §8, §9, §10

Data set [8] has as its system Enterococcus faecalis (VRE) E8 VanA. Briefly: MIC, agar dilution (BSAC guidelines). The format is cell-based. As to conditions: Table 2, E. faecalis (VRE) E8 VanA, read-out: Minimum inhibitory concentration (MIC). On the procedure:
as §1, §2, §3, §4, §5, §6, §7, §8, §9, §10

For data set [9], the system named is Escherichia coli NCTC 10418. Nature of the data set: MIC, agar dilution (BSAC guidelines). The format is cell-based. As to conditions: NCTC10418, Table 2, E. coli NCTC 10418, read-out: Minimum inhibitory concentration (MIC). On the procedure: as §1, §2, §3, §4, §5, §6, §7, §8, §9, §10
For data set [10], the system named is VISA, strain USA/VISA 5827. Nature of the data set: MIC, agar dilution (BSAC guidelines). Format: cell-based. The note with it: Staphylococcus aureus, Table 2, read-out: Minimum inhibitory concentration (MIC). On the procedure:
as §1, §2, §3, §4, §5, §6, §7, §8, §9, §10

Data set [11] has as its system Enterococcus faecium (VRE) E15 VanA ATCC 4147. Briefly: MIC, agar dilution (BSAC guidelines). As to conditions: Table 2, E. faecium (VRE) E15 VanA ATCC 4147, read-out: Minimum inhibitory concentration (MIC). Format: cell-based. On the procedure: as §1, §2, §3, §4, §5, §6, §7, §8, §9, §10
For data set [12], the system named is strains of Staphylococci and Enterococci with reduced susceptibility to vancomycin. Briefly: Growth inhibition, summary of MIC testing. The format is cell-based. As to conditions: summary in words. On the procedure:
as §1, §5, §8, §9, §10

For data set [13] the following is noted: in vivo; cited from earlier work.

≈ marks a conversion by molar mass, not a printed value. A value given as a limit tells only on which side of the number the result lay.

Take `c1ccc(-c2ccc(C(c3ccccc3)n3ccnc3)cc2)cc1` (centres unmarked) [Bifonazole]: the MIC in data set [1], in data set [2], in data set [3], in data set [4], in [5] and in data set [6] was above 128 µg/mL in each case. Besides, the MIC in data set [7], in [8], in data set [9], in data set [10] and in data set [11] was above 128 µg/mL in each case. Also, the “activity against strains of Staphylococci and Enterococci with reduced susceptibility to vancomycin” value in [12] is on record as “did not show this activity”.

On to `OC(Cn1cncn1)(Cn1cncn1)c1ccc(F)cc1F` [Fluconazole], for which the MIC in data set [1], in data set [2], in [3], in data set [4], in data set [5] and in data set [6] was above 128 µg/mL throughout. The MIC in [7], in [8], in data set [9], in data set [10] and in [11] was above 128 µg/mL throughout. The “activity against strains of Staphylococci and Enterococci with reduced susceptibility to vancomycin” value in [12] was “did not show this activity”.

As for `CC(=O)N1CCN(c2ccc(OCC3COC(Cn4ccnc4)(c4ccc(Cl)cc4Cl)O3)cc2)CC1` (centres unmarked) [Ketoconazole], the MIC in data set [1] was 128 µg/mL (≈ 241 µM); in data set [2], 64 µg/mL (≈ 120 µM); in [3], above 256 µg/mL; in data set [4], 64 µg/mL (≈ 120 µM); in data set [5], 64 µg/mL (≈ 120 µM); in data set [6] it was 128 µg/mL (≈ 241 µM). The MIC in data set [7] was 128 µg/mL (≈ 241 µM); in data set [8], above 256 µg/mL; in [9] it was above 256 µg/mL; in [10], 64 µg/mL (≈ 120 µM); in [11], 16 µg/mL (≈ 30.1 µM). Also, in [12], the “activity against strains of Staphylococci and Enterococci with reduced susceptibility to vancomycin” value was “did not show this activity”.

On to `Clc1ccc(COC(Cn2ccnc2)c2ccc(Cl)cc2Cl)cc1` (centres unmarked) [econazole nitrate], for which, in data set [13], the systemic absorption entry was “extremely low” and the “topical dose recovered in the urine or faeces” value was “Less than 1%”.
